Patent US6737383B1, “Herbicidal oxadiazolidines” (priority 1999, dated 2004)

Tests used:
[1] = test system: pigweed; test: Test B pre/postemergence pigweed; type: in vivo, Amaranthus retroflexus
Method in brief: (§1)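 Herbicidal effect was estimated by eye on a ten-point control scale after plants spent twelve to sixteen days in a greenhouse following soil or foliar treatment. Foliar sprays targeted plants at one to four leaves; all doses were formulated in a non-phytotoxic solvent with surfactant.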

[2] = test system: sugar beet; test: Test B pre/postemergence sugar beet; type: in vivo, Beta vulgaris
Method in brief: as §1

[3] = test system: crabgrass; test: Test B pre/postemergence crabgrass; type: in vivo, Digitaria sanguinalis
Method in brief: as §1

[4] = test system: bedstraw; test: Test B pre/postemergence bedstraw; type: in vivo, Galium aparine
Method in brief: as §1

[5] = test system: soybean; test: Test B pre/postemergence soybean; type: in vivo, Glycine max
Method in brief: as §1

[6] = test system: rice; test: Test B flood test rice; type: in vivo, Oryza sativa
Method in brief: (§2)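 Each value is a visual injury score relative to controls, with 10 meaning complete control and 0 no effect. Evaluation took place twelve to sixteen days after the 2-leaf-stage plants were treated and kept in the greenhouse.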

[7] = test system: smallflower flatsedge; test: Test B flood test smallflower flatsedge; type: in vivo, Cyperus difformis
Method in brief: as §2

[8] = test system: wild oat; test: Test B pre/postemergence wild oat; type: in vivo, Avena fatua
Method in brief: as §1

[9] = test system: morningglory; test: Test B pre/postemergence morningglory; type: in vivo, Ipomoea hederacea
Method in brief: as §1

[10] = test system: surinam grass; test: Test B pre/postemergence surinam grass; type: in vivo, Brachiaria decumbens
Method in brief: as §1

[11] = test system: corn; test: Test B pre/postemergence corn; type: in vivo, Zea mays
Method in brief: as §1

[12] = test system: velvetleaf; test: Test B pre/postemergence velvetleaf; type: in vivo, Abutilon theophrasti
Method in brief: as §1

[13] = test system: duck salad; test: Test B flood test duck salad; type: in vivo, Heteranthera limosa
Method in brief: as §2

[14] = test system: bamyardgrass; test: Test B flood test barnyardgrass; type: in vivo, Echinochloa crus-galli
Method in brief: as §2

[15] = test system: rape; test: Test B pre/postemergence rape; type: in vivo, Brassica napus
Method in brief: as §1

[16] = test system: cocklebur; test: Test B pre/postemergence cocklebur; type: in vivo, Xanthium strumarium
Method in brief: as §1

[17] = Preemergence, Rate 62 g/ha, scale of 0 to 10 where 0 is no effect and 10 is complete control
[18] = Preemergence, Rate 250 g/ha, scale of 0 to 10 where 0 is no effect and 10 is complete control
[19] = Preemergence, Rate 500 g/ha, scale of 0 to 10 where 0 is no effect and 10 is complete control
[20] = Rate 62 g/ha, Postemergence, scale 0 to 10 (0 no effect, 10 complete control)
[21] = Rate 125 g/ha, Postemergence, scale of 0 to 10 where 0 is no effect and 10 is complete control
[22] = Rate 250 g/ha, Postemergence, scale of 0 to 10 where 0 is no effect and 10 is complete control
[23] = Rate 62 g/ha, headed Pre-emergence (flood test species), scale 0 to 10 (0 no effect, 10 complete control)
[24] = Rate 125 g/ha, Pre-emergence, flood test species, scale 0 to 10 where 0 is no effect and 10 is complete control
[25] = Rate 250 g/ha, Pre-emergence, flood-test species, scale 0 to 10, 0 is no effect, 10 is complete control
[26] = Rate 500 g/ha, Pre-emergence, flood test species, scale 0 to 10 (0 no effect, 10 complete control)
[27] = Rate 500 g/ha, Postemergence, scale 0 to 10, 0 no effect, 10 complete control

Compound: CCN(C(=O)n1oc(=O)n(Cc2ccco2)c1=O)C1CCCCC1 [Compound 312]
- Redroot pigweed plant response rating [1, 17]: 0
- Redroot pigweed plant response rating (0 to 10 scale) ([1]; Preemergence, Rate 125 g/ha): 0
- Redroot pigweed plant response rating [1, 18]: 0
- Redroot pigweed plant response rating [1, 19]: 0
- Redroot pigweed plant response rating [1, 20]: 0
- Redroot pigweed plant response rating [1, 21]: 0
- Plant response rating, Redroot pigweed [1, 22]: 0
- Sugarbeets plant response rating [2, 17]: 0
- Sugarbeets plant response rating (0 to 10 scale) ([2]; Preemergence, Rate 125 g/ha): 0
- Sugarbeets plant response rating [2, 18]: 0
- Sugarbeets plant response rating [2, 19]: 0
- Sugarbeets plant response rating [2, 20]: 0
- Sugarbeets plant response rating [2, 21]: 0
- Plant response rating, Sugarbeets [2, 22]: 0
- Crabgrass plant response rating [3, 17]: 0
- Crabgrass plant response rating (0 to 10 scale) ([3]; Preemergence, Rate 125 g/ha): 0
- Crabgrass plant response rating [3, 18]: 0
- Crabgrass plant response rating [3, 19]: 0
- Crabgrass plant response rating [3, 20]: 0
- Crabgrass plant response rating [3, 21]: 0
- Plant response rating, Crabgrass [3, 22]: 0
- Bedstraw plant response rating [4, 17]: 0
- Bedstraw plant response rating (0 to 10 scale) ([4]; Preemergence, Rate 125 g/ha): 0
- Bedstraw plant response rating [4, 18]: 0
- Bedstraw plant response rating [4, 19]: 0
- Bedstraw plant response rating [4, 20]: 0
- Bedstraw plant response rating [4, 21]: 0
- Plant response rating, Bedstraw [4, 22]: 0
- Soybean plant response rating [5, 17]: 0
- Soybean plant response rating (0 to 10 scale) ([5]; Preemergence, Rate 125 g/ha): 0
- Soybean plant response rating [5, 18]: 0
- Soybean plant response rating [5, 19]: 0
- Soybean plant response rating [5, 20]: 2
- Soybean plant response rating [5, 21]: 2
- Plant response rating, Soybean [5, 22]: 3
- Rice plant response rating [6, 23]: 0
- Rice plant response rating [6, 24]: 0
- Rice plant response rating [6, 25]: 0
- Rice plant response rating [6, 26]: 0
- S. Flatsedge plant response rating [7, 23]: 0
- S. Flatsedge plant response rating [7, 24]: 0
- S. Flatsedge plant response rating [7, 25]: 0
- S. Flatsedge plant response rating [7, 26]: 0
- Wild oats plant response rating [8, 17]: 0
- Wild oats plant response rating (0 to 10 scale) ([8]; Preemergence, Rate 125 g/ha): 0
- Wild oats plant response rating [8, 18]: 0
- Wild oats plant response rating [8, 19]: 0
- Wild oats plant response rating [8, 20]: 0
- Wild oats plant response rating [8, 21]: 0
- Plant response rating, Wild oats [8, 22]: 0
- Morningglory plant response rating [9, 17]: 0
- Morningglory plant response rating (0 to 10 scale) ([9]; Preemergence, Rate 125 g/ha): 0
- Morningglory plant response rating [9, 18]: 0
- Morningglory plant response rating [9, 19]: 0
- Morningglory plant response rating [9, 20]: 0
- Morningglory plant response rating [9, 21]: 0
- Plant response rating, Morningglory [9, 22]: 0
- B. signalgrass plant response rating [10, 17]: 0
- B. signalgrass plant response rating (0 to 10 scale, 0 is no effect, 10 is complete control) ([10]; Preemergence, Rate 125 g/ha): 0
- B. signalgrass plant response rating [10, 18]: 0
- B. signalgrass plant response rating [10, 19]: 0
- B. signalgrass plant response rating [10, 20]: 0
- B. signalgrass plant response rating [10, 21]: 0
- Plant response rating, B. signalgrass [10, 22]: 0
- B. signalgrass plant response rating [10, 27]: 0
- Corn plant response rating [11, 17]: 0
- Corn plant response rating (0 to 10 scale) ([11]; Preemergence, Rate 125 g/ha): 0
- Corn plant response rating [11, 18]: 0
- Corn plant response rating [11, 19]: 0
- Corn plant response rating [11, 20]: 0
- Corn plant response rating [11, 21]: 0
- Plant response rating, Corn [11, 22]: 0
- Corn plant response rating [11, 27]: 0
- Velvetleaf plant response rating [12, 17]: 0
- Velvetleaf plant response rating (0 to 10 scale) ([12]; Preemergence, Rate 125 g/ha): 0
- Velvetleaf plant response rating [12, 18]: 0
- Velvetleaf plant response rating [12, 19]: 0
- Velvetleaf plant response rating [12, 20]: 0
- Velvetleaf plant response rating [12, 21]: 0
- Plant response rating, Velvetleaf [12, 22]: 0
- Ducksalad plant response rating [13, 23]: 0
- Ducksalad plant response rating [13, 24]: 0
- Ducksalad plant response rating [13, 25]: 0
- Ducksalad plant response rating [13, 26]: 0
- Barnyardgrass plant response rating [14, 23]: 0
- Barnyardgrass plant response rating [14, 24]: 0
- Barnyardgrass plant response rating [14, 25]: 0
- Barnyardgrass plant response rating [14, 26]: 0
- Rape plant response rating [15, 17]: 0
- Rape plant response rating (0 to 10 scale) ([15]; Preemergence, Rate 125 g/ha): 0
- Rape plant response rating [15, 18]: 0
- Rape plant response rating [15, 19]: 0
- Rape plant response rating [15, 20]: 0
- Rape plant response rating [15, 21]: 0
- Plant response rating, Rape [15, 22]: 0
- Cocklebur plant response rating [16, 17]: 0
- Cocklebur plant response rating (0 to 10 scale) ([16]; Preemergence, Rate 125 g/ha): 0
- Cocklebur plant response rating [16, 18]: 0
- Cocklebur plant response rating [16, 19]: 0
- Cocklebur plant response rating [16, 20]: 0
- Cocklebur plant response rating [16, 21]: 0
- Plant response rating, Cocklebur [16, 22]: 0
- Cocklebur plant response rating [16, 27]: 0

Compound: CSCCn1c(=O)on(C(=O)N(c2ccc(F)cc2)C(C)C)c1=O [Compound 314]
- Redroot pigweed plant response rating [1, 17]: 0
- Redroot pigweed plant response rating (0 to 10 scale) ([1]; Preemergence, Rate 125 g/ha): 2
- Redroot pigweed plant response rating [1, 18]: 2
- Redroot pigweed plant response rating [1, 19]: 9
- Redroot pigweed plant response rating [1, 20]: 0
- Redroot pigweed plant response rating [1, 21]: 0
- Plant response rating, Redroot pigweed [1, 22]: 0
- Sugarbeets plant response rating [2, 17]: 0
- Sugarbeets plant response rating (0 to 10 scale) ([2]; Preemergence, Rate 125 g/ha): 2
- Sugarbeets plant response rating [2, 18]: 2
- Sugarbeets plant response rating [2, 19]: 6
- Sugarbeets plant response rating [2, 20]: 0
- Sugarbeets plant response rating [2, 21]: 0
- Plant response rating, Sugarbeets [2, 22]: 0
- Crabgrass plant response rating [3, 17]: 1
- Crabgrass plant response rating (0 to 10 scale) ([3]; Preemergence, Rate 125 g/ha): 3
- Crabgrass plant response rating [3, 18]: 7
- Crabgrass plant response rating [3, 19]: 8
- Crabgrass plant response rating [3, 20]: 0
- Crabgrass plant response rating [3, 21]: 0
- Plant response rating, Crabgrass [3, 22]: 4
- Bedstraw plant response rating [4, 17]: 0
- Bedstraw plant response rating (0 to 10 scale) ([4]; Preemergence, Rate 125 g/ha): 0
- Bedstraw plant response rating [4, 18]: 0
- Bedstraw plant response rating [4, 19]: 3
- Bedstraw plant response rating [4, 20]: 2
- Bedstraw plant response rating [4, 21]: 4
- Soybean plant response rating [5, 17]: 0
- Soybean plant response rating (0 to 10 scale) ([5]; Preemergence, Rate 125 g/ha): 0
- Soybean plant response rating [5, 18]: 0
- Soybean plant response rating [5, 19]: 0
- Soybean plant response rating [5, 20]: 2
- Soybean plant response rating [5, 21]: 3
- Plant response rating, Soybean [5, 22]: 4
- Rice plant response rating [6, 23]: 0
- Rice plant response rating [6, 24]: 0
- Rice plant response rating [6, 25]: 0
- Rice plant response rating [6, 26]: 0
- S. Flatsedge plant response rating [7, 23]: 0
- S. Flatsedge plant response rating [7, 24]: 0
- S. Flatsedge plant response rating [7, 25]: 0
- S. Flatsedge plant response rating [7, 26]: 0
- Wild oats plant response rating [8, 17]: 0
- Wild oats plant response rating (0 to 10 scale) ([8]; Preemergence, Rate 125 g/ha): 2
- Wild oats plant response rating [8, 18]: 2
- Wild oats plant response rating [8, 19]: 3
- Wild oats plant response rating [8, 20]: 0
- Wild oats plant response rating [8, 21]: 0
- Plant response rating, Wild oats [8, 22]: 2
- Morningglory plant response rating [9, 17]: 0
- Morningglory plant response rating (0 to 10 scale) ([9]; Preemergence, Rate 125 g/ha): 0
- Morningglory plant response rating [9, 18]: 0
- Morningglory plant response rating [9, 19]: 0
- Morningglory plant response rating [9, 20]: 2
- Morningglory plant response rating [9, 21]: 2
- Plant response rating, Morningglory [9, 22]: 3
- B. signalgrass plant response rating [10, 17]: 0
- B. signalgrass plant response rating (0 to 10 scale, 0 is no effect, 10 is complete control) ([10]; Preemergence, Rate 125 g/ha): 2
- B. signalgrass plant response rating [10, 18]: 6
- B. signalgrass plant response rating [10, 19]: 6
- B. signalgrass plant response rating [10, 20]: 0
- B. signalgrass plant response rating [10, 21]: 0
- Plant response rating, B. signalgrass [10, 22]: 0
- B. signalgrass plant response rating [10, 27]: 3
- Corn plant response rating [11, 17]: 0
- Corn plant response rating (0 to 10 scale) ([11]; Preemergence, Rate 125 g/ha): 0
- Corn plant response rating [11, 18]: 0
- Corn plant response rating [11, 19]: 0
- Corn plant response rating [11, 20]: 0
- Corn plant response rating [11, 21]: 0
- Plant response rating, Corn [11, 22]: 0
- Corn plant response rating [11, 27]: 0
- Velvetleaf plant response rating [12, 17]: 0
- Velvetleaf plant response rating (0 to 10 scale) ([12]; Preemergence, Rate 125 g/ha): 0
- Velvetleaf plant response rating [12, 18]: 3
- Velvetleaf plant response rating [12, 19]: 5
- Velvetleaf plant response rating [12, 20]: 0
- Velvetleaf plant response rating [12, 21]: 0
- Plant response rating, Velvetleaf [12, 22]: 0
- Ducksalad plant response rating [13, 23]: 0
- Ducksalad plant response rating [13, 24]: 0
- Ducksalad plant response rating [13, 25]: 0
- Ducksalad plant response rating [13, 26]: 0
- Barnyardgrass plant response rating [14, 23]: 0
- Barnyardgrass plant response rating [14, 24]: 0
- Barnyardgrass plant response rating [14, 25]: 0
- Barnyardgrass plant response rating [14, 26]: 0
- Rape plant response rating [15, 17]: 0
- Rape plant response rating [15, 18]: 3
- Rape plant response rating [15, 19]: 7
- Rape plant response rating [15, 20]: 0
- Rape plant response rating [15, 21]: 0
- Plant response rating, Rape [15, 22]: 0
- Cocklebur plant response rating [16, 17]: 0
- Cocklebur plant response rating (0 to 10 scale) ([16]; Preemergence, Rate 125 g/ha): 0
- Cocklebur plant response rating [16, 18]: 0
- Cocklebur plant response rating [16, 19]: 0
- Cocklebur plant response rating [16, 20]: 0
- Plant response rating, Cocklebur [16, 22]: 1
- Cocklebur plant response rating [16, 27]: 1
